Experimental data as given in patent US20230348454A1, “COMPOUNDS AS MODULATORS OF BIS-PHOSPHOGLYCERATE MUTASE FOR THE TREATMENT OF SICKLE CELL DISEASE” (Genzyme Corporation, priority 2020, published 2023).
Like-named read-outs stand apart in the source and are kept apart here.

Experiments:
[1] = target: T1, human Bisphosphoglycerate mutase (hBPGM) (Homo sapiens, UniProt P07738); assay: BPGM phosphatase assay; assay type: biochemical
T1 sequence (P07738 1-259): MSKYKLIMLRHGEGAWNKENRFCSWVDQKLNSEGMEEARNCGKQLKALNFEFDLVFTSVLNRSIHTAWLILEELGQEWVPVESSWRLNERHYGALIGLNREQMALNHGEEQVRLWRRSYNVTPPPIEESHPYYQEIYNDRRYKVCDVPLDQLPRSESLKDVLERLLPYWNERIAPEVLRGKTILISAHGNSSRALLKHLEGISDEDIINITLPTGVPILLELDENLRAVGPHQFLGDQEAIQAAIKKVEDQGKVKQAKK
Description: The following materials were used in this assay: Tris buffer (50 mM Tris, 0.01% Tween 20, pH 7.4); cyclohexylammonium salt of 2,3-BPG (stock solution of 500 mM in ultapure distilled water; human Bisphosphoglycerate mutase (hBPGM; stock solution of 110 μM in Standard Buffer); 3-Phosphoglyceric acid (3-PG; stock solution of 100 mM in ultrapure distilled water); 384-Well Polystyrene Plates (Fisherbrand™, Catalog No.: 12-566-625); BIOMOL GREEN REAGENT (Enzo life sciences, BML-AK111-0250); and 1 mM DMSO stock of exemplary compounds.
A 3-PG enzyme mix solution (final enzyme concentration 62.5 nM, 3-PG concentration at 50 µM, 14.5 uL) was added to onto a 384-well clear plate. Solutions of the test compounds were then added to the plate and the DMSO content was normalized across the plate. The plate was incubated at RT for 15 min. Next, the substrate 2,3-BPG (5 μL) was added to all the wells, and the plate was sealed and incubated for 24 hr at RT. After incubation, BIOMOL green dye (40 μL) was added to all the wells, the plate was shaken to mix, and the plate was incubated at RT for 20-30 min. Absorbance measurements were recorded at 620 nm.

[2] = target: T2, hBPGM (Homo sapiens, UniProt P07738); assay: BPGM synthase assay; assay type: biochemical
T2 sequence (P07738 1-259): T1 sequence (P07738 1-259)
Description: The following materials were used in this assay: deionized water; Bisphosphoglycerate mutase (BPGM; Standard Buffer: 50 mM Tris, 0.01% Tween 20, pH 7.4); BPGM Reaction Buffer (50 mM Tris, 0.01% Tween 20, 3.23 mM KH2PO4, pH 7.4); dithiothreitol (DTT; Stock solution: 100 mM in Standard Buffer); 384-Well Black Assay Plate (Corning, P/N 3575); DMSO; BPGM Stock Solution (500 nM in BPGM Standard Buffer); Glyceraldehyde 3-phosphate dehydrogenase (GAPDH; Stock Solution: 40 U/mL in 20 mM Tris-HCL Buffer with 20% Glycerol, 1 mM EDTA, 1 mM DTT); Glyceraldehyde 3-phosphate (GAP; Stock Solution: 20 mM in BPGM Standard Buffer); 3-PG Stock Solution (500 μM in BPGM Standard Buffer); Nicotinamide adenine dinucleotide (NAD; Stock Solution: 50 mM in BPGM Standard Buffer); Koningic Acid (1 mM Stock in DMSO); Resazurin Stock Solution (10 mM in DMSO); Diaphorase Stock Solution (40 U/mL in BPGM Standard Buffer); DTT Reaction Buffer (1 mM DTT in BPGM Reaction Buffer); Enzyme Solution (5 nM BPGM, 0.4 U/mL GAPDH in DTT Reaction Buffer); GAPDH Solution (0.4 U/mL GAPDH in DTT Reaction Buffer); Substrate Solution (2 mM NAD, 20 μM 3PG, 800 μM GAP in DTT Reaction Buffer); and Resazurin Solution (5 U/mL Diaphorase, 500 μM Resazurin in BPGM Standard Buffer).
To the assay plate was added Enzyme Solution (20 uL) to columns 2-22 and 24 of the assay plate. To columns 1 and 23 was added GAPDH Solution (20 uL). A separate compound plate was prepared at the desired concentrations and all wells were normalized with 5% DMSO. The compound plate was incubated for 30 minutes at RT. Next, the substrate solution (20 μL) was dispensed to all reaction wells and the plate was incubated for 60 minutes at RT. Koningic acid (1 μL) was added and the plate was incubated for 10 minutes at RT. During this time period, the NADH fluorescence was read at ex: 360/em: 460. Next, Resazurin Solution (10 μL) was added to all reaction wells and the plate was incubated for 30 minutes at RT. The resorufin fluorescence was then read at ex:544/em:590.

[3] = Table 6, read-out: huBPGM: phosphatase Enzyme EC50
[4] = Table 6, read-out: huBPGM: synthase Enzyme IC50

| EC50 [1, 3] | IC50 [2, 4] | EC50 ([1]; Table 4, read-out: hBPGM Phosphatase EC50) | IC50 ([2]; Table 3, read-out: hBPGM Synthase IC50) | Structure (SMILES) |
| --- | --- | --- | --- | --- |
| 25 nM | 25 nM | – | – | Cc1nc(CNc2cccnn2)sc1-c1cccc(-c2cc(F)c3nn[nH]c3c2F)n1 [Example 95] |
| 1000 nM | 1600 nM | – | – | CC(=O)NCc1nc(C)c(-c2csc(-c3cc(F)c(O)c(F)c3F)n2)s1 [Example 96] |
| 6900 nM | 1800 nM | – | – | Cc1nc(CNC(=O)N2CC(O)C2)sc1-c1csc(-c2cc(F)c(O)c(F)c2F)n1 [Example 97] |
| 380 nM | 2200 nM | – | – | Cc1nc(COC(C)C(=O)N(C)C)sc1-c1csc(-c2cc(F)c(O)c(F)c2F)n1 (centres unmarked) [Example 98] |
| 7800 nM | 4700 nM | – | – | Cc1nc(COCC(=O)O)sc1-c1csc(-c2cc(F)c(O)c(F)c2F)n1 [Example 99] |
| 57 nM | 310 nM | – | – | Cc1nc(COc2ccccn2)sc1-c1csc(-c2cc(F)c3[nH]nnc3c2)n1 [Example 100] |
| 45 nM | 620 nM | – | – | Cc1nc(COc2ccccn2)sc1-c1csc(-c2cc(F)c(O)c(F)c2F)c1 [Example 102] |
| > 25000 nM | 930 nM | – | – | CC(=O)NCc1nc(C)c(-c2csc(-c3cc(F)c4[nH]nnc4c3)n2)s1 [Example 103] |
| > 25000 nM | 2300 nM | – | – | Cc1nc(COCC(=O)N2CCN(CCO)CC2)sc1-c1csc(-c2cc(F)c(O)c(F)c2F)n1 [Example 104] |
| 2700 nM | 23 nM | – | – | Cc1nc(COC(=O)N(C)C)sc1-c1cccc(-c2cc(F)c3nn[nH]c3c2F)n1 [Example 125] |
| > 25000 nM | 21 nM | – | – | Cc1nc(CNc2ncccn2)sc1-c1cccc(-c2cc(F)c3nn[nH]c3c2F)n1 [Example 126] |
| 380 nM | 430 nM | – | – | Cc1nc(COCC(=O)N2CCCC2)sc1-c1csc(-c2cc(F)c(O)c(F)c2F)n1 [Example 127] |
| 10000 nM | 15 nM | – | – | Cc1ccnc(OCc2nc(C)c(-c3cccc(-c4cc(F)c5nn[nH]c5c4F)n3)s2)n1 [Example 130] |
| 570 nM | 510 nM | – | – | Cc1nc(COc2ncccn2)sc1-c1cccc(-c2ccc3nn[nH]c3c2)n1 [Example 131] |
| 240 nM | 160 nM | – | – | Cc1nc(COc2ncc(C(=O)O)cn2)sc1-c1cccc(-c2cc(F)c3nn[nH]c3c2F)n1 [Example 135] |
| 70 nM | 200 nM | – | – | Cc1cnc(OCc2nc(C)c(-c3cccc(-c4cc(F)c5nn[nH]c5c4)n3)s2)nc1C [Example 136] |
| > 25000 nM | 960 nM | – | – | Cc1nc(CNC(=O)C(C)CN(C)C)sc1-c1cccc(-c2cc(F)c3nn[nH]c3c2F)n1 (centres unmarked) [Example 138] |
| > 25000 nM | > 25000 nM | – | – | Cc1nc(COc2ncccn2)sc1-c1cccc(-c2cc[n+]([O-])cc2)n1 [Example 139] |
| 30 nM | – | – | – | Cc1nc(COc2ncc(Cl)cn2)sc1-c1cccc(-c2cc(F)c3nn[nH]c3c2)n1 [Example 140] |
| 57 nM | 54 nM | – | – | Cc1nc(COc2ncccn2)sc1-c1cccc(-c2cc(F)c3[nH]nnc3c2)n1 [Example 141] |
| 40 nM | 260 nM | – | – | COc1cnc(OCc2nc(C)c(-c3cccc(-c4cc(F)c5nn[nH]c5c4)n3)s2)nc1 [Example 142] |
| 40 nM | 330 nM | – | – | CCc1cnc(OCc2nc(C)c(-c3cccc(-c4cc(F)c5nn[nH]c5c4F)n3)s2)nc1 [Example 144] |
| 30 nM | 250 nM | – | – | Cc1nc(COc2ncccn2)sc1-c1csc(-c2cc(F)c3[nH]nnc3c2)c1 [Example 145] |
| 490 nM | 550 nM | – | – | Cc1nc(COC(=O)N2CCN(C)CC2)sc1-c1cccc(-c2cc(F)c3nn[nH]c3c2)n1 [Example 147] |
| 250 nM | 1200 nM | – | – | Cc1nc(COc2ncccn2)sc1-c1cccc(-c2cc(F)c(O)c(F)c2F)c1 [Example 148] |

| EC50 [1, 3] | IC50 [2, 4] | EC50 ([1]; Table 4, read-out: hBPGM Phosphatase EC50) | IC50 ([2]; Table 3, read-out: hBPGM Synthase IC50) | Structure (SMILES) |
| --- | --- | --- | --- | --- |
| 20000 nM | 1500 nM | – | – | Cc1nc(COc2ncccn2)sc1-c1cccc(-c2ccc3nnc(O)n3c2)n1 [Example 151] |
| 30 nM | 40 nM | – | – | Cc1cnc(OCc2nc(C)c(-c3cccc(-c4cc(F)c5nn[nH]c5c4)n3)s2)nc1 [Example 152] |
| 60 nM | 81 nM | – | – | Cc1ccnc(OCc2nc(C)c(-c3cccc(-c4cc(F)c5nn[nH]c5c4)n3)s2)n1 [Example 153] |
| 49 nM | 110 nM | – | – | Cc1nc(COc2ncccn2)sc1-c1csc(-c2cc(F)c(O)c(F)c2F)c1 [Example 154] |
| 40 nM | 44 nM | – | – | Cc1nc(CNc2ncccn2)sc1-c1cccc(-c2cc(F)c3nn[nH]c3c2)n1 [Example 155] |
| 150 nM | 200 nM | – | – | COC(=O)NCc1nc(C)c(-c2csc(-c3ccc4[nH]nnc4c3F)n2)s1 [Example 156] |
| 240 nM | 170 nM | – | – | Cc1nc(COc2ncccn2)sc1-c1cccc(-c2ccc(C(=O)NS(=O)(=O)c3ccccc3)cc2)n1 [Example 157] |
| 530 nM | 240 nM | – | – | Cc1nc(COc2ncccn2)sc1-c1cccc(-c2ccc(C#N)c(O)c2)n1 [Example 158] |
| 1800 nM | 290 nM | – | – | Cc1nc(COc2ncccn2)sc1-c1cccc(-c2ccc(O)c(C#N)c2)n1 [Example 159] |
| – | 82 nM | – | – | Cc1nc(COCC(C)(C)O)sc1-c1nc(-c2cc(F)c3nn[nH]c3c2)cs1 [Example 226] |
| – | 21 nM | – | – | COC(C)(C)COCc1nc(C)c(-c2cccc(-c3cc(F)c4nn[nH]c4c3F)n2)s1 [Example 227] |
| – | > 25000 nM | – | – | COc1c(F)cc(-c2cccc(-c3sc(COc4ncccn4)nc3C)n2)c(F)c1C#N [Example 228] |
| – | > 25000 nM | – | – | Cc1nc(COc2ncccn2)sc1-c1cccc(Nc2ccc3[nH]nnc3c2)n1 [Example 229] |
| – | > 25000 nM | – | – | Cc1nc(-c2cccc(-c3sc(COc4ncccn4)nc3C)n2)nnc1O [Example 230] |
| – | 87 nM | – | – | Cc1nc(COc2ncccn2)sc1-c1cccc(-c2cc(F)c(O)c(C#N)c2F)n1 [Example 231] |
| – | 2200 nM | – | – | Cc1nnc(-c2cccc(-c3cc(F)c4nn[nH]c4c3F)n2)s1 [Example 232] |
| – | 3900 nM | – | – | Cc1nc(COc2ncccn2)sc1-c1cnn(-c2cc(F)c(O)c(F)c2F)c1 [Example 233] |
| – | 1300 nM | – | – | Cc1nc(COCC(C)(C)C)sc1-c1cccc(-c2cc(F)c3nn[nH]c3c2F)n1 [Example 234] |
| – | 130 nM | – | – | Cc1nc(COC(C)(C)C)sc1-c1cccc(-c2cc(F)c3nn[nH]c3c2F)n1 [Example 235] |
| – | 110 nM | – | – | Cc1nc(COC(C)C)sc1-c1cccc(-c2cc(F)c3nn[nH]c3c2F)n1 [Example 236] |
| – | 22 nM | – | – | Cc1nc(COCC(C)O)sc1-c1cccc(-c2cc(F)c3nn[nH]c3c2F)n1 (centres unmarked) [Example 237] |
| – | 49 nM | – | – | Cc1nc(COCC2(O)CC2)sc1-c1cccc(-c2cc(F)c3nn[nH]c3c2F)n1 [Example 238] |
| 55 nM | – | 55 nM | – | Cc1nc(COc2cccnn2)sc1-c1csc(-c2cc(F)c3[nH]nnc3c2)n1 [compound 7] |
| – | 260 nM | – | 256 nM | Cc1nc(COc2ncccn2)sc1-c1cccc(-c2cc(F)c(O)c(C#N)c2)n1 [compound 12] |

| Structure (SMILES) | EC50 [1, 3] | IC50 [2, 4] | EC50 ([1]; Table 4, read-out: hBPGM Phosphatase EC50) | IC50 ([2]; Table 3, read-out: hBPGM Synthase IC50) |
| --- | --- | --- | --- | --- |
| Cc1nc(COC(=O)N(C)C)sc1-c1csc(-c2cc(F)c(O)c(F)c2F)n1 [Example 137] | 200 nM | 230 nM | – | – |
